Measurements: patent publication US20250051355A1, “COMPOUNDS, COMPOSITIONS, AND METHODS” (ACONCAGUA BIO, INC., priority 2023, published 2025)

What was measured:
[1] = target: human calcitonin receptor (CTR) and RAMP3 (AMY3) (Homo sapiens, UniProt O60896+P30988); experiment: Amylin Receptor cAMP Assay II; type: cell-based; settings: COS-7/AMY3 cells, cAMP dynamic 2 kit, read-out: Amylin Receptor cAMP Stimulation Activity: EC50
Excerpt: Amylin Receptor cAMPAssay II
AMYRs are heterodimers of the class B calcitonin (CT) G-protein-coupled receptor (CTR) and receptor activity-modifying proteins (RAMPs). All three RAMPs can interact with the CTR and form AMY1, AMY2, AMY3 with RAMP1, RAMP2 and RAMP3, respectively. Like other class B1 GPCRs, the CT receptor family is canonically coupled to Gs-mediated cAMP production, and measurement of cAMP accumulation has been the primary assay used to determine peptide selectivity and potency.
(§1) To optimize functional activity directed toward Gas coupling, COS-7 cells were stably transfected with human calcitonin receptor (CTR) and RAMP3, simultaneously. 100×concentration of compound working solutions were prepared with 4-fold serial dilution in 384-well Echo LDV plate (Labcyte, Cat #LP-0200-BC). 200 nL/well 100×concentration of compound working solutions were moved to 384-well white microplate (Perkin Elmer, Cat #6007680) using Labcyte ECHO550. […] cells/mL COS-7/AMY3 cell suspensions prepared with assay buffer [HBSS containing 20 mM HEPES (Gibco, Cat #15630-080), 0.5 mM IBMX (Sigma, Cat #15879) and 0.1% Casein (Sigma, Cat #C4765)], 20 μL cell suspensions were added to each well of previous generated assay plate which already contains 200 nL compound at 100×concentration using ThermoFisher Multidrop Combi (2000 cells/well). Seal the plate and incubate at 37° C. with 5% CO2 for 30 min.
(§2) After incubation, the cAMP assay signal was generated using cAMP dynamic 2 kit (Revvity, Cat #62AM4PEC). 10 μL cAMP-d2 working solution was added to each well, followed by 10 μL Anti-cAMP antibody-cryptate working solution which was added to each well using CERTUS FLEX LIQUID DISPENSER The samples were then incubated at room temperature for 1 hour protected from light. the fluorescence was read at 665 and 615 nm with Reader PerkinElmer EnVision 2105.

[2] = target: T1, human calcitonin receptor (CTR) (Homo sapiens, UniProt P30988); experiment: Calcitonin receptor (CTR) cAMP Assay; type: cell-based; settings: COS7-human CTR Clone #2 cells, cAMP dynamic 2 kit; read-out: Calcitonin Receptor cAMP Stimulation Activity: EC50
T1 construct: expressed in transfected cells; host or cells: COS-7 (COS7-human CTR Clone #2)
T1 sequence (P30988 25-474): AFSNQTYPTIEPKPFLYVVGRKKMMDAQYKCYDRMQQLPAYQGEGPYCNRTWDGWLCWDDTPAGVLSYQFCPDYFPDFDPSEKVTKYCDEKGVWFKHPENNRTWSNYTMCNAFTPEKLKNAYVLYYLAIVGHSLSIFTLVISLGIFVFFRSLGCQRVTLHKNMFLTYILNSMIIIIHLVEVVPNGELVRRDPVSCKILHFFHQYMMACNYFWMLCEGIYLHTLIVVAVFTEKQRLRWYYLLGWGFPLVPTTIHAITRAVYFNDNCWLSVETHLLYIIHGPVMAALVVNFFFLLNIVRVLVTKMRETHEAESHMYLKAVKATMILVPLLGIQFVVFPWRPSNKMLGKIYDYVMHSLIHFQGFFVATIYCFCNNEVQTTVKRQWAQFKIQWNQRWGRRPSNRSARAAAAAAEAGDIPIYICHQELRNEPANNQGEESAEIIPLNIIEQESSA
Excerpt: Calcitonin receptor (CTR) cAMPAssay
The calcitonin receptor (CTR) belongs to the subfamily of GPCRs known as the secretin or ‘B’ family of GPCRs. Like other class B1 GPCRs, the CT receptor family is canonically coupled to Gs-mediated cAMP production, and measurement of cAMP accumulation has been the primary assay used to determine peptide selectivity and potency.
as §1, with “to create COS7-human CTR Clone #2 stable cell line. 100× concentration” for “and RAMP3, simultaneously. 100×concentration”, “COS7-human CTR Clone #2” for “COS-7/AMY3”
as §2, with “#62AM4PEC). […] cAMP-d2 working” for “#62AM4PEC). 10 μL cAMP-d2 working”

human calcitonin receptor (CTR) and RAMP3 (AMY3), sequence (O60896 24-148, one chain of several): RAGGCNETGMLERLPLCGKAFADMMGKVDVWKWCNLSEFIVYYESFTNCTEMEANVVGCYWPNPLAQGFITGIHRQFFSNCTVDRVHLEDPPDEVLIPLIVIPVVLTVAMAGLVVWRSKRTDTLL

Row | Structure (SMILES) | EC50 [1] | EC50 [2]
1 | Cc1cc(-c2c(CCC3CCOCC3)nc3c(c2-c2cc4ccnc(N[C@@H]5CCc6ncccc65)c4s2)S(=O)(=O)CC3C(C)C)ncn1 (stereo partly drawn) [Compound 92, N—(R)-4-aza-1-indanyl(2-(3-isopropyl-6-(6-methyl-4-pyrimidinyl)-1,1-dioxo-5-[2-(tetrahydro-2H-pyran-4-yl)ethyl]-1λ^6-thia-4-aza-7-indanyl}-1-thia-6-aza-7-indenyl)amine] | 540 nM | 117 nM
2 | Cc1nnc(-c2c(CCC3CCOCC3)nc3c(c2-c2cc4ccnc(N[C@H](C)c5cncc(F)c5)c4s2)S(=O)(=O)CC3C(C)C)o1 (stereo partly drawn) [Compound 93, [(R)-1-(5-fluoro-3-pyridyl)ethyl](2-(3-isopropyl-6-(5-methyl-1,3,4-oxadiazol-2-yl)-1,1-dioxo-5-[2-(tetrahydro-2H-pyran-4-yl)ethyl]-1λ^6-thia-4-aza-7-indanyl}-1-thia-6-aza-7-indenyl)amine] | 471 nM | 42.2 nM
3 | Cc1nnc(-c2c(CCC3CCOCC3)nc3c(c2-c2cc4ccnc(N[C@@H]5CCc6ncccc65)c4s2)S(=O)(=O)CC3C)o1 (stereo partly drawn) [Compound 94, N—(R)-4-aza-1-indanyl(2-(3-methyl-6-(5-methyl-1,3,4-oxadiazol-2-yl)-1,1-dioxo-5-[2-(tetrahydro-2H-pyran-4-yl)ethyl]-1λ^6-thia-4-aza-7-indanyl}-1-thia-6-aza-7-indenyl)amine] | 1150 nM | 179 nM
4 | Cc1nnc(-c2c(CCC3CCOCC3)nc3c(c2-c2cc4ccnc(N[C@@H]5CCc6ncccc65)c4s2)C(=O)N2CCOC[C@@H]32)o1 [Compound 95, (R)-4-(7-(((R)-6,7-dihydro-5H-cyclopenta[b]pyridin-5-yl)amino)thieno[2,3-c]pyridin-2-yl)-3-(5-methyl-1,3,4-oxadiazol-2-yl)-2-(2-(tetrahydro-2H-pyran-4-yl)ethyl)-7,8,10,10a-tetrahydro-5H-pyrido[2′,3′:3,4]pyrrolo[2,1-c][1,4]oxazin-5-one] | 857 nM | 35.6 nM
5 | Cc1nnc(-c2c(CC3CCOCC3)nc3c(c2-c2cc4ccnc(N[C@@H]5CCc6ncccc65)c4s2)S(=O)(=O)CC3C(C)C)o1 (stereo partly drawn) [Compound 96, N—(R)-4-aza-1-indanyl(2-(3-isopropyl-6-(5-methyl-1,3,4-oxadiazol-2-yl)-1,1-dioxo-5-[(tetrahydro-2H-pyran-4-yl)methyl]-1λ^6-thia-4-aza-7-indanyl}-1-thia-6-aza-7-indenyl)amine] | 1300 nM | 226 nM
6 | COc1noc(-c2c(CCc3ccc(F)cc3)nc3c(c2-c2cc4ccnc(N[C@@H]5CCc6c(OC)cccc65)c4s2)C(=O)N2CCC[C@@H]32)n1 [Compound 97, (S)-2-(4-fluorophenethyl)-3-(3-methoxy-1,2,4-oxadiazol-5-yl)-4-(7-(((R)-4-methoxy-2,3-dihydro-1H-inden-1-yl)amino)thieno[2,3-c]pyridin-2-yl)-7,8,9,9a-tetrahydro-5H-pyrido[2,3-a]pyrrolizin-5-one] | 318 nM | 20.7 nM
7 | Cc1nnc(-c2c(CCC3CC(C)OC(C)C3)nc3c(c2-c2cc4ncnc(N[C@@H]5CCc6ncccc65)c4s2)S(=O)(=O)CC3C(C)C)o1 (stereo partly drawn) [Compound 98, N—(R)-4-aza-1-indanyl(2-(5-[2-(2,6-dimethyltetrahydro-2H-pyran-4-yl)ethyl]-3-isopropyl-6-(5-methyl-1,3,4-oxadiazol-2-yl)-1,1-dioxo-1λ^8-thia-4-aza-7-indanyl}-1-thia-4,6-diaza-7-indenyl)amine] | 352 nM | 39.2 nM

More lines, now with the values ahead:

Row | EC50 [1] | EC50 [2] | Structure (SMILES)
8 | 1900 nM | 208 nM | Cc1nnc(-c2c(CCC3CCOC3)nc3c(c2-c2cc4ncnc(N[C@@H]5CCc6ncccc65)c4s2)S(=O)(=O)CC3C(C)C)o1 (stereo partly drawn) [Compound 99, N—(R)-4-aza-1-indanyl(2-(3-isopropyl-6-(5-methyl-1,3,4-oxadiazol-2-yl)-1,1-dioxo-5-[2-(tetrahydro-3-furyl)ethyl]-1λ^6-thia-4-aza-7-indanyl}-1-thia-4,6-diaza-7-indenyl)amine]
9 | 6180 nM | 184 nM | Cc1nnc(-c2c(CCC3CCCO3)nc3c(c2-c2cc4ncnc(N[C@@H]5CCc6ncccc65)c4s2)S(=O)(=O)CC3C(C)C)o1 (stereo partly drawn) [Compound 100, N—(R)-4-aza-1-indanyl(2-(3-isopropyl-6-(5-methyl-1,3,4-oxadiazol-2-yl)-1,1-dioxo-5-[2-(tetrahydro-2-furyl)ethyl]-1λ^6-thia-4-aza-7-indanyl}-1-thia-4,6-diaza-7-indenyl)amine]
10 | 38.1 nM | 2.23 nM | Cc1cnc(-c2c(CCC3CCOCC3)nc3c(c2-c2ccc4c(c2)oc(=O)n4Cc2ccc(C#N)cn2)C(=O)N2CCC[C@@H]32)o1 [Compound 101]
11 | 265 nM | 50 nM | Cc1noc(-c2c(CCC3CCOCC3)nc3c(c2-c2cc4ccnc(N[C@@H]5CCc6ncccc65)c4s2)S(=O)(=O)CC3C(C)C)n1 (stereo partly drawn) [Compound 102, N—(R)-4-aza-1-indanyl(2-(3-isopropyl-6-(3-methyl-1,2,4-oxadiazol-5-yl)-1,1-dioxo-5-[2-(tetrahydro-2H-pyran-4-yl)ethyl]-1λ^6-thia-4-aza-7-indanyl}-1-thia-6-aza-7-indenyl)amine]
12 | 1190 nM | 45.9 nM | Cc1nnc(-c2c(CCC3CCOCC3)nc3c(c2-c2cc4ncnc(N[C@@H]5CCc6ncccc65)c4s2)S(=O)(=O)CC3C2CC2)o1 (stereo partly drawn) [Compound 103, N—(R)-4-aza-1-indanyl(2-(3-cyclopropyl-6-(5-methyl-1,3,4-oxadiazol-2-yl)-1,1-dioxo-5-[2-(tetrahydro-2H-pyran-4-yl)ethyl]-1λ^6-thia-4-aza-7-indanyl}-1-thia-4,6-diaza-7-indenyl)amine]
13 | 42.4 nM | 1.25 nM | Cc1nnc(-c2c(CCC3CCOCC3)nc3c(c2-c2ccc4c(c2)oc(=O)n4Cc2ccc(C#N)c(F)c2)C(=O)N2CCOC[C@@H]32)o1 [Compound 104, 4-[(6-((4aR)-7-(5-methyl-1,3,4-oxadiazol-2-yl)-9-oxo-6-[2-(tetrahydro-2H-pyran-4-yl)ethyl]-1,2,4,4a-tetrahydro-9H-3-oxa-5,9a-diazafluoren-8-yl}-2-oxo-1,3-benzoxazol-3-yl)methyl]-2-fluorobenzonitrile]
14 | 385 nM | 9.56 nM | Cc1nnc(-c2c(CCC3CCOCC3)nc3c(c2-c2ccc4c(cnn4Cc4ccc(C#N)c(F)c4)c2)C(=O)N2CCOC[C@@H]32)o1 [Compound 105, 4-[(5-((4aR)-7-(5-methyl-1,3,4-oxadiazol-2-yl)-9-oxo-6-[2-(tetrahydro-2H-pyran-4-yl)ethyl]-1,2,4,4a-tetrahydro-9H-3-oxa-5,9a-diazafluoren-8-yl}-1H-indazol-1-yl)methyl]-2-fluorobenzonitrile]
